Common to all, as to type: cell-based
Experiment [1] deals with Trentepohlia aurea, Tretepohlia odorata, and Calotrix parientina. The experiment is described as follows: Algal efficacy, dry paint film (Modified ASTM 5589), Cp + To + Ta pool. The conditions noted are these: Cal-Tre; for Total conc in pppm: minimum inhibitory concentration chosen for SI calculation, NE=no end point. The procedure:
(§1) Each sample was tested in duplicate.
(§2) In this synergy study, three pool of mixed algae were prepared as the test inoculum, Gloeocapsa sp. and Oscillatoria sp. a mix of cyanobacteria grown on BG-11 media; Chlorella sp., Chlorella kessleri, and Nostoc commune are unicellular chlorphytes that were mixed and grown on Bold media; Trentepohlia aurea, Tretepohlia odorata, and Calotrix parientina are filamentous algae that were mixed and grown on Bold media.
(§3) The plates were incubated at room temp (25° C.-26° C.) with cyclic exposure to light (OTT-Lite model # OTL4012P, 40 Watt, 26KLumen) and dark phases, for a period of four weeks. The total area covered was evaluated at the end of each week according to percent area covered in 5% increments.
(§4) The SI is calculated based on F. C.
(§5) SI value of <1 in the formula indicates a synergism of the blended biocides exists.
(§6) NE=no end point at the concentration tested that will meet the percent inhibition criteria set in each SI calculation.

Experiment [2] deals with Gloeocapsa sp. and Oscillatoria sp. The experiment can be described thus: Algal efficacy, dry paint film (Modified ASTM 5589), Gs + Os pool. Conditions: Os-Gl; for Total conc in pppm: minimum inhibitory concentration chosen for SI calculation, total actives in paint. The method, then: as §1, §2, §3, §4, §5, §6
Experiment [3] deals with Chlorella sp., Chlorella kessleri, and Nostoc commune. The experiment can be described thus: Algal efficacy, dry paint film (Modified ASTM 5589), Cs + Ck + Nc pool. Conditions: Ch-No; for Total conc in pppm: minimum inhibitory concentration chosen for SI calculation, total actives in paint. The procedure: as §1, §2, §3, §4, §5, §6
In experiment [4] the test system is Aspergillus niger mixed with Penicillium funiculosum. The experiment is described as follows: Fungal efficacy, dry paint film (Modified ASTM 5590), An + Pf pool. The conditions noted are these: for Total conc in pppm: minimum inhibitory concentration chosen for SI calculation, total actives in paint. The procedure: as §1, §4, §5, §6
The mark [5] stands for this setting: at the total conc listed for the same ratio.

With zinc glyphosate, the “Total conc in pppm” value in experiment [1], in experiment [2], in experiment [3] and in experiment [4] was 412.5 pppm each time.

As to `Cc1ccc(S(=O)(=O)C(I)I)cc1` [DMITS, diiodomethyl-p-tolylsulfone], the “% Inhibition” value was found to be 20% in experiment [1] (setting [5]), 20% in experiment [2] (setting [5]), 80% in experiment [3] (setting [5]) and 80% in experiment [4] (setting [5]). Further, the “Total conc in pppm” value is reported as 3300 pppm in experiment [1], 3300 pppm in experiment [2], 2475 pppm in experiment [3] and 825 pppm in experiment [4].

Broadly, the % Inhibition is the drop in the measured response relative to a control, in per cent.

Source of the values: US8507409B2, “Synergistic combination of a glyphosate compound and DMITS” (Dow Global Technologies LLC, priority 2010, dated 2013).
